These compounds were tested against T1, human kinase Mps-1 (Homo sapiens, UniProt P33981) (assay: Mps-1 Kinase Assay (TR-FRET)). Conditions: N-terminally GST-tagged human full length recombinant Mps-1; 10 μM ATP; 1 μM biotinylated peptide substrate; 60 min at 22° C.; read-out: MPS1 Inhibition, IC50 in M.
T1 construct: N-terminally GST-tagged human full length recombinant Mps-1 kinase; purchased Invitrogen, Karslruhe, Germany PV4071
T1 sequence (P33981 1-857): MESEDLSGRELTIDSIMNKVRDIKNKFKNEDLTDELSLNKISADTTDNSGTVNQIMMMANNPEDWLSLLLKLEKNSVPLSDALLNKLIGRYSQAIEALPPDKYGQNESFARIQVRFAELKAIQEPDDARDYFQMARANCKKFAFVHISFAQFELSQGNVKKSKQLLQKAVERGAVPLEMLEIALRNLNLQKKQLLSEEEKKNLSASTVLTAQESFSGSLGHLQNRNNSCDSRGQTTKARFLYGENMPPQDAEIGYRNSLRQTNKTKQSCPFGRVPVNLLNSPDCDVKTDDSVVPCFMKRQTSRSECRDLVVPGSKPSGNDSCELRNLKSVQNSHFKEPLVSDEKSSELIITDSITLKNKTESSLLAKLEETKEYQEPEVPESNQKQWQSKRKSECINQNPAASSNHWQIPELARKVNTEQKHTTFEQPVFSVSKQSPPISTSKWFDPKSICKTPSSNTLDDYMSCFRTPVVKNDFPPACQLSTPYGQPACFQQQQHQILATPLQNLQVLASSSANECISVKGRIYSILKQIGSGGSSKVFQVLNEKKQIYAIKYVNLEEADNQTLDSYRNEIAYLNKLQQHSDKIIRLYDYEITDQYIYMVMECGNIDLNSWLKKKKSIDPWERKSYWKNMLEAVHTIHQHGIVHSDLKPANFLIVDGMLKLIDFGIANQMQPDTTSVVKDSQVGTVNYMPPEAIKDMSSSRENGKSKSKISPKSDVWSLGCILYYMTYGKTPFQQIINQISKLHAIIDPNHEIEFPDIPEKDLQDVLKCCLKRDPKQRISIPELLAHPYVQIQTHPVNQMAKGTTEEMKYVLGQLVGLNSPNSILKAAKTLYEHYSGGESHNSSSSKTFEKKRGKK
Type: biochemical

Row | IC50 | SMILES
1 | 59 nM | CN1CCN(C(=O)c2cccc(-c3ccc4nc(Nc5ccccc5C#N)nn4c3)c2)CC1 [Example 9.1, 2-[(6-{3-[(4-methylpiperazin-1-yl)carbonyl]phenyl}[1,2,4]triazolo[1,5-a]pyridin-2-yl)amino]benzonitrile]
2 | 66 nM | COc1ccccc1Nc1nc2ccc(-c3cccc(NS(=O)(=O)CC4CC4)c3)cn2n1 [Example 8.3, 1-Cyclopropyl-N-(3-{2-[(2-methoxyphenyl)amino][1,2,4]triazolo[1,5-a]pyridin-6-yl}phenyl)methanesulfonamide]
3 | 4.4 nM | N#Cc1ccccc1Nc1nc2ccc(-c3cccc(C(=O)NC4CC4)c3)cn2n1 [Example 9.5, 3-{2-[(2-cyanophenyl)amino][1,2,4]triazolo[1,5-a]pyridin-6-yl}-N-cyclopropylbenzamide]
4 | 660 nM | COc1ccccc1Nc1nc2ccc(-c3cccc(NC(=O)Nc4ccncc4)c3)cn2n1 [Example 8.14, 1-(3-{2-[(2-methoxyphenyl)amino][1,2,4]triazolo[1,5-a]pyridin-6-yl}phenyl)-3-pyridin-4-ylurea]
5 | 59 nM | COc1ccccc1Nc1nc2ccc(-c3cccc(NC(=O)C4CC4)c3)cn2n1 [Example 8.2, N-(3-{2-[(2-methoxyphenyl)amino][1,2,4]triazolo[1,5-a]pyridin-6-yl}phenyl)cyclopropanecarboxamide]
6 | 620 nM | COc1ccccc1Nc1nc2ccc(-c3cccc(NC(=O)N4CCN(C)CC4)c3)cn2n1 [Example 8.8, N-(3-{2-[(2-methoxyphenyl)amino][1,2,4]triazolo[1,5-a]pyridin-6-yl}phenyl)-4-methylpiperazine-1-carboxamide]
7 | 6.5 nM | COc1ccccc1Nc1nc2ccc(-c3cccc(C(=O)NC4CC4)c3)cn2n1 [Example 10.1, N-cyclopropyl-3-{2-[(2-methoxyphenyl)amino][1,2,4]triazolo[1,5-a]pyridin-6-yl}benzamide]
8 | 360 nM | COc1ccccc1Nc1nc2ccc(-c3cccc(NS(=O)(=O)c4ccccc4)c3)cn2n1 [Example 8.6, N-(3-{2-[(2-methoxyphenyl)amino][1,2,4]triazolo[1,5-a]pyridin-6-yl}phenyl)benzenesulfonamide]
9 | 290 nM | COc1ccccc1Nc1nc2ccc(-c3cccc(NC(=O)c4ccccc4)c3)cn2n1 [Example 8.7, N-(3-{2-[(2-methoxyphenyl)amino][1,2,4]triazolo[1,5-a]pyridin-6-yl}phenyl)benzamide]
10 | 2.9 nM | N#Cc1ccccc1Nc1nc2ccc(-c3cccc(C(=O)NC4CCCC4)c3)cn2n1 [Example 9.2, 3-{2-[(2-cyanophenyl)amino][1,2,4]triazolo[1,5-a]pyridin-6-yl}-N-cyclopentylbenzamide]
11 | 270 nM | COc1ccccc1Nc1nc2ccc(-c3cccc(NC(=O)Nc4cccnc4)c3)cn2n1 [Example 8.12, 1-(3-{2-[(2-methoxyphenyl)amino][1,2,4]triazolo[1,5-a]pyridin-6-yl}phenyl)-3-pyridin-3-ylurea]
12 | 640 nM | COc1ccccc1Nc1nc2ccc(-c3cccc(NC(=O)N4CCC(N(C)C)CC4)c3)cn2n1 [Example 8.11, 4-(dimethylamino)-N-(3-{2-[(2-methoxyphenyl)amino][1,2,4]triazolo[1,5-a]pyridin-6-yl}phenyl)piperidine-1-carboxamide]
13 | 290 nM | COc1ccccc1Nc1nc2ccc(-c3cccc(NC(=O)Cc4ccccc4)c3)cn2n1 [Example 8.1, N-(3-{2-[(2-methoxyphenyl)amino][1,2,4]triazolo[1,5-a]pyridin-6-yl}phenyl)-2-phenylacetamide]
14 | 45 nM | COc1ccccc1Nc1nc2ccc(-c3cccc(C(=O)NCc4ccccc4)c3)cn2n1 [Example 10.2, N-benzyl-3-{2-[(2-methoxyphenyl)amino][1,2,4]triazolo[1,5-a]pyridin-6-yl}benzamide]
15 | 100 nM | COc1ccccc1Nc1nc2ccc(-c3cccc(NC(=O)N4CCOCC4)c3)cn2n1 [Example 8.10, N-(3-{2-[(2-methoxyphenyl)amino][1,2,4]triazolo[1,5-a]pyridin-6-yl}phenyl)morpholine-4-carboxamide]
16 | 21 nM | N#Cc1ccccc1Nc1nc2ccc(-c3cccc(C(=O)NCc4ccccc4)c3)cn2n1 [Example 9.4, N-benzyl-3-{2-[(2-cyanophenyl)amino][1,2,4]triazolo[1,5-a]pyridin-6-yl}benzamide]
17 | 84 nM | COc1ccccc1Nc1nc2ccc(-c3cccc(NC(=O)NC4CC4)c3)cn2n1 [Example 8.9, 1-cyclopropyl-3-(3-{2-[(2-methoxyphenyl)amino][1,2,4]triazolo[1,5-a]pyridin-6-yl}phenyl)urea]

More lines, now with the values behind:

Row | SMILES | IC50
18 | CO[C@H](C(=O)Nc1ccc(-c2ccc3nc(Nc4ccccc4C#N)nn3c2)cc1)c1ccccc1 (stereo in doubt) [Example 3.2, N-(4-{2-[(2-cyanophenyl)amino][1,2,4]triazolo[1,5-a]pyridin-6-yl}phenyl)-2-methoxy-2-phenylacetamide] | 3.4 nM
19 | O=C(CC1CC1)Nc1ccc(-c2ccc3nc(Nc4ccccc4C(F)(F)F)nn3c2)cc1 [Example 5.3, 2-cyclopropyl-N-[4-(2-{[2-(trifluoromethyl)phenyl]amino}[1,2,4]triazolo[1,5-a]pyridin-6-yl)phenyl]acetamide] | 81 nM
20 | N#Cc1ccccc1Nc1nc2ccc(-c3cccc(C(=O)Nc4ccccc4)c3)cn2n1 [Example 2.1, 3-{2-[(2-cyanophenyl)amino][1,2,4]triazolo[1,5-a]pyridin-6-yl}-N-phenylbenzamide] | 65 nM
21 | N#Cc1ccccc1Nc1nc2ccc(-c3ccc(NC(=O)Cc4cccc(F)c4)cc3)cn2n1 [Example 3.5, N-(4-{2-[(2-cyanophenyl)amino][1,2,4]triazolo[1,5-a]pyridin-6-yl}phenyl)-2-(3-fluorophenyl)acetamide] | 1.1 nM
22 | COc1ccccc1Nc1nc2ccc(-c3ccc(C(=O)NC4CC4)cc3)cn2n1 [Example 1.1, N-Cyclopropyl-4-[2-(2-methoxy-phenylamino)-[1,2,4]triazolo[1,5-a]pyridin-6-yl]-benzamide] | 370 nM
23 | N#Cc1ccccc1Nc1nc2ccc(-c3ccc(NC(=O)Cc4cccnc4)cc3)cn2n1 [Example 3.8, N-(4-{2-[(2-cyanophenyl)amino][1,2,4]triazolo[1,5-a]pyridin-6-yl}phenyl)-2-(pyridin-3-yl)acetamide] | 3.5 nM
24 | COC(C(=O)Nc1ccc(-c2ccc3nc(Nc4ccccc4C(F)(F)F)nn3c2)cc1)c1ccccc1 (racemic) [Example 5.9, Rac-2-methoxy-2-phenyl-N-[4-(2-{[2-(trifluoromethyl)phenyl]amino}[1,2,4]-triazolo[1,5-a]pyridin-6-yl)phenyl]acetamide] | 110 nM
25 | O=C(Cc1cccnc1)Nc1ccc(-c2ccc3nc(Nc4ccccc4C(F)(F)F)nn3c2)cc1 [Example 5.8, 2-(pyridin-3-yl)-N-[4-(2-{[2-(trifluoromethyl)phenyl]amino}[1,2,4]triazolo[1,5-a]pyridin-6-yl)phenyl]acetamide] | 99 nM
26 | N#Cc1ccccc1Nc1nc2ccc(-c3ccc(NC(=O)Nc4ccccc4)cc3)cn2n1 [Example 3.7, 1-(4-{2-[(2-cyanophenyl)amino][1,2,4]triazolo[1,5-a]pyridin-6-yl}phenyl)-3-phenylurea] | 12 nM
27 | NC(C(=O)Nc1ccc(-c2ccc3nc(Nc4ccccc4C(F)(F)F)nn3c2)cc1)c1ccccc1 (racemic) [Example 5.7, rac-2-amino-2-phenyl-N-[4-(2-{[2-(trifluoromethyl)phenyl]amino}[1,2,4]triazolo[1,5-a]pyridin-6-yl)phenyl]acetamide] | 14 nM
28 | N#Cc1ccccc1Nc1nc2ccc(-c3ccc(NC(=O)Cc4ccc(C(F)(F)F)cc4)cc3)cn2n1 [Example 3.1, N-(4-{2-[(2-cyanophenyl)amino][1,2,4]triazolo[1,5-a]pyridin-6-yl}phenyl)-2-[4-(trifluoromethyl)phenyl]acetamide] | 8.2 nM
29 | O=C(CN1CCOCC1)Nc1ccc(-c2ccc3nc(Nc4ccccc4C(F)(F)F)nn3c2)cc1 [Example 5.5, 2-(morpholin-4-yl)-N-[4-(2-{[2-(trifluoromethyl)phenyl]amino}[1,2,4]triazolo[1,5-a]pyridin-6-yl)phenyl]acetamide] | 3300 nM
30 | O=C(CN1CCCCC1)Nc1ccc(-c2ccc3nc(Nc4ccccc4C(F)(F)F)nn3c2)cc1 [Example 5.6, 2-(piperidin-1-yl)-N-[4-(2-{[2-(trifluoromethyl)phenyl]amino}[1,2,4]triazolo[1,5-a]pyridin-6-yl)phenyl]acetamide] | 880 nM
31 | O=C(Cc1ccccc1)Nc1ccc(-c2ccc3nc(Nc4ccccc4C(F)(F)F)nn3c2)cc1 [Example 5.1, 2-phenyl-N-[4-(2-{[2-(trifluoromethyl)phenyl]amino}[1,2,4]triazolo[1,5-a]pyridin-6-yl)phenyl]acetamide] | 7.1 nM

Reference: US9676766B2, “Triazolopyridines” (BAYER INTELLECTUAL PROPERTY GMBH, priority 2009, dated 2017)
